“Also recorded” adds a separate entry of the source.
Tests used:
[1] = system: 1-LN human prostate tumor cells; assay: Binding of 125I-labeled Pg 2 glycoforms to 1-LN cells; conditions: for BINDING +6-AHA: binding to surface of 1-LN cells in presence of 6-AHA; for BINDING +6-AHA / BINDING +L-lactose: Yes/No; for BINDING +L-lactose: binding to surface of 1-LN cells in presence of L-lactose; for Binding to 1-LN cells: in words; for Bound (Molecules × 10^5/cell): maximal binding, mean ± SD
Procedure: Ligand Binding Analysis—Cells were grown in tissue culture plates until the monolayers were confluent. Prior to use in binding assays, the cells were washed in HBSS. All binding assays were performed at 4° C. in RPMI 1640 containing 2% bovine serum ablumin (BSA). Increasing concentrations of ^125I-labeled Pg 2 glycoforms were incubated with cells for 60 min in 48-well or 96-well culture plates, respectively. Free ligand was separated from bound by aspirating the incubation mixture by and washing the cell monolayers rapidly three times with RPMI 1640 containing 2% BSA. The cells were then lyzed with 0.1 M NaOH, and bound radioactivity was determined in a Pharmacia LKB Biotechnology 1272-gamma counter. Molecules of ligand bound were calculated after substraction of non-specific binding measured in the presence of nonlabeled 100 μM Pg 2. Estimates for dissociation constant (Kd) values and maximal binding of Pg 2 glycoforms (Bmax) were determined by fitting data directly to the Langmuir isotherm using the statistical program SYStat® for Windows.
Binding of Single Pg 2 Glycoforms to 1-LN Human Prostate Tumor Cells—Binding of ^125I-labeled single Pg 2 glycoforms to 1-LN cells was determined as described under Experimental Procedures. Native Pg 2 has six glycoforms which differ in their sialic acid content.
In order to assess the binding mechanism of the individual Pg 2 glycoforms to 1-LN cells, we studied their activation by cells incubated with each glycoform in the presence of 6-aminohexanoic acid (6-AHA) and L-lactose. The antifibrinolytic amino acid 6-AHA prevents interaction of Pg L-lysine binding sites with several cell membrane-associated components. L-lactose is a sugar which intereferes with binding of Neu 5-AC (α2-3) or (α2-6) residues to sialic acid binding proteins and inhibits binding of Native Pg 2 to DPP IV on the surface of rheumatoid synovial fibroblasts.

1-LN cells = assay: In vitro Matrigel invasion assay (modified Boyden chamber); format: cell-based, human
Procedure: In Vitro Invasion Assay—The invasive activity in vitro was assessed by determining the ability of 1-LN cells to invade Matrigel® [47]. Polycarbonate filters (8-μm pore size; Becton Dickinson, Franklin Lakes, N.J.) were coated with Matrigel (12 μg/filter) and placed in a modified Boyden chamber. Cells (1×10^5) were added to the upper chamber in serum-free RPMI 1640 medium, or medium containing purified Pg 2 glycoforms in the absence and presence of anti-DPP IV, anti-u-PA or anti-MMP-9 IgGs, and incubated for 48 h in a humidified atmosphere. Following incubation, non-invading cells were removed from the upper chamber with a cotton swab, and filters were excised and stained with Cyto-Quik™ (Fisher Scientific, Fair Lawn, N.J.). Cells on the lower surface of the filter were enumerated using an ocular micrometer and counting a minimum of five high-powered fields. Each experiment was performed twice with triplicate samples.
Effect of Pg on 1-LN Cellular Invasion—Pg enhances the ability of prostate cancer PC-3 and DU-145 cell lines to penetrate the synthetic basement membrane Matrigel® [54]. To determine whether Pg regulates invasion via secretion of MMP-9, 1-LN cells were incubated with different inhibiting antibodies in the presence of purified Pg 2 glycoforms.

[2] = molecular target: T1, DPP IV isolated from 1-LN cell membranes (Homo sapiens, UniProt P27487); assay: Solid phase radioligand binding of Pg 2 glycoforms to immobilized DPP IV; conditions: for Binding to immobilized DPP IV: DPP IV 1 μg/ml coated on 96-well plates, in words
T1 construct: DPP IV from 1-LN cell membranes was purified to homogeneity as described under Experimental Procedures; endogenous in cells; host or cells: 1-LN human prostate tumor cells; Membranes were solubilized with Triton X-100; The enzyme was then purified on DEAE-Sepharose, Gly-Leu-Sepharose, concanavalin A-Sepharose and by gel filtration
Procedure: Purification of DPP IV from 1-LN Cell Membranes—Cells grown in 20 culture flasks (150 cm^2) were detached with 10 mM EDTA in Hanks' balanced salt solution (HBSS) and pelleted by centrifugation. The cell pellet was suspended in 10 ml of 20 mM Hepes, pH 7.2, containing 0.25 M sucrose and 0.5 mg/ml each of the following proteinase inhibitors: antipain-HCl, bestatin, chymostatin, transepoxysuccinyl-L-leucylamido-(4-guanidino)butane (E-64), leupeptin, pepstatin, O-phenanthroline, and aprotinin. Cells were lyzed by sonication on ice (five 10 s bursts with 30 s intervals). All procedures were performed at 4° C. The homogenate was centrifuged at 800×g for 15 min to remove unbroken cells and nuclei, followed by centrifugation of the supernatant at 50,000×g for 1 h. The pellet containing cell membranes was resuspended in 20 mM Tris-HCl, pH 8.0, containing 1% (v/v) Triton X-100 to solubilize membranes and centrifuged again at 50,000×g for 30 min to remove insoluble materials. DPP IV activity in this supernatant and in all the following purification steps was monitored by a chromogenic assay using the DPP IV substrate Gly-Pro-pNA [36]. The enzyme was sequentially purified to homogeneity using DEAE-Sepharose ion exchange chromatography and Gly-Leu-Sepharose affinity chromatography, followed by chromatography on concanavalin A-Sepharose and gel filtration on a Sepharose S-200 column. These steps yielded fully active DPP IV (˜40 μg/1×10^9 cells). […] A sample of the protein was analyzed by matrix-assisted laser desorption ionization-MS, and the obtained mass spectrometric peptide maps (30 peptides) were used to identify DPP IV in the OWL Protein database release 29.6 [38,39].
Solid Phase Radioligand Binding Studies—To study specific binding of Pg 2 glycoforms to immobilized DPP IV purified from 1-LN cells, 96-well strip plates were coated with DPP IV (1 μg/ml in 0.1 M sodium carbonate, pH 9.6, 200 μl/well, 37° C., 2 h). After coating, plates were washed with 200 μl of 10 mM sodium phosphate, 100 mM NaCl, pH 7.4, containing 0.05% Tween-80 (PBS-Tween) to remove unbound protein. Non-specific sites were blocked by incubating with PBS-Tween containing 2% BSA at room temperature for 1 h. Plates were rinsed twice with 200 μl of PBS-Tween, air dried, and stored at 4° C. For assays, increasing concentrations of ^125I-labeled Pg 2 glycoforms, with or without 50-fold excess of unlabeled ligands, were added to triplicate wells and incubated at 37° C. for 1 h. Following incubation, the supernatants were removed and the plates rinsed three times with 200 μl PBS-Tween. Wells were stripped from the plates and radioactivity measured. Specific binding was calculated by substraction of non-specific binding measured in the presence of unlabeled ligand.
Binding of Pg 2 Glycoforms to Immobilized DPP IV Isolated from 1-LN Cell Membranes—Once identified as a Pg receptor, DPP IV from 1-LN cell membranes was purified to homogeneity as described under Experimental Procedures. […] A blot binding assay with mAb clone in the Mr˜120,000 size range. […] DPP IV immobilization on cell culture plates and binding assays of Pg 2 glycoforms were performed as described under Experimental Procedures.

[3] = 125I-labeled glycoform, 1-LN cell monolayers, serum-free RPMI 1640, mean ± SD
[4] = 125I-labeled glycoform, 1-LN cell monolayers
[5] = Serum-Free Medium + glycoform 0.1 μM
[6] = glycoform 0.1 μM +Anti-DPP IV IgG 50 μg/ml
[7] = glycoform 0.1 μM +Anti-MMP-9 IgG 20 μg/ml
[8] = glycoform 0.1 μM +Anti-u-PA IgG 100 μg/ml

T1 sequence (P27487 whole entry): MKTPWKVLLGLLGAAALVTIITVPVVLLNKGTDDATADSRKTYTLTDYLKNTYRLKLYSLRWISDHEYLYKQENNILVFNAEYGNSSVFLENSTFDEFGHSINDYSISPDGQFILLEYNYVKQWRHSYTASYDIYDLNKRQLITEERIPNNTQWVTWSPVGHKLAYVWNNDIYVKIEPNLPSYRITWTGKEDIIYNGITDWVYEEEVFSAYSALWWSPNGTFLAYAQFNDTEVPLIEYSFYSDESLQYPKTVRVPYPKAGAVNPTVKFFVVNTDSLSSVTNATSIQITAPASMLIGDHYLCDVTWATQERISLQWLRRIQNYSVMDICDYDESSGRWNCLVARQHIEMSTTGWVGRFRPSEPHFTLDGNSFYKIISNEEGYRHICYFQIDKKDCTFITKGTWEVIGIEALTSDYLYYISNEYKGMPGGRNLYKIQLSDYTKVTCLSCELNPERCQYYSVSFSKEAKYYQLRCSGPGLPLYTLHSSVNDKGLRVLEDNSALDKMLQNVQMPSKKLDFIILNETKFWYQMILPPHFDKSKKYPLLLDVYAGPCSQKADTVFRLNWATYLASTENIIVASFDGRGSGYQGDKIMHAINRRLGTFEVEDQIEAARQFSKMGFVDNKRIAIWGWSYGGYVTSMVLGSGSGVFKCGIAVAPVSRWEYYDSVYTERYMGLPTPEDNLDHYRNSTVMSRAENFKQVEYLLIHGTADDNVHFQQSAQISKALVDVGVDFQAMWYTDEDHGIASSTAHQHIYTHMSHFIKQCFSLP

Inhibition of binding of 125I-labeled Pg 2γ, 2δ and 2ε to DPP IV ([2]; glycoforms 0.1 μM each, increasing concentrations of L-lactose) | Compound | Kd [1, 3] [nM] | BINDING +6-AHA [1] | BINDING +L-lactose [1] | Binding to 1-LN cells [1] | Bound (Molecules × 10^5/cell) [1, 4] [Molecules × 10^5/cell] | Relative Invasion (Number of Cells/Field) (1-LN cells; [5]) | Binding to immobilized DPP IV [2] | Relative Invasion (Number of Cells/Field) (1-LN cells; [6]) | Relative Invasion (Number of Cells/Field) (1-LN cells; [7]) | Relative Invasion (Number of Cells/Field) (1-LN cells; [8]) | Enhancement of cellular invasion (1-LN cells; Matrigel invasion by 1-LN cells) | Inhibition of binding of single Pg 2 glycoforms to 1-LN cells ([1]; 125I-labeled glycoform 0.1 μM, increasing concentrations of inhibitor) | Kd (nM) [1, 3]
– | Pg 2β: glycoform of human plasminogen type 2 purified from plasma; 2.2 mol sialic acid/mol Pg | 7.4 ± 1.86 | No | Yes | bind to 1-LN cells in a dose-dependent manner with high affinity | 8.3 ± 1.3 | 9.4 ± 2.1 Number of Cells/Field | No specific binding | – | – | – | – | – | –
– | Pg 2γ: glycoform of human plasminogen type 2 purified from plasma; 2.95 mol sialic acid/mol Pg | 10.6 ± 1.43 | Yes | No | bind to 1-LN cells in a dose-dependent manner with high affinity | 8.6 ± 1.7 | 7.8 ± 1.6 Number of Cells/Field | bind to this DPP IV in a dose-dependent and saturable manner | 4.6 ± 2.7 Number of Cells/Field | 2.1 ± 1.2 Number of Cells/Field | 5.3 ± 2.8 Number of Cells/Field | – | – | –
– | Pg 2δ: glycoform of human plasminogen type 2 purified from plasma; 5.77 mol sialic acid/mol Pg | 13.6 ± 1.04 | Yes | No | bind to 1-LN cells in a dose-dependent manner with high affinity | 18.1 ± 2.4 | 9.2 ± 2.5 Number of Cells/Field | bind to this DPP IV in a dose-dependent and saturable manner | 10.4 ± 3.1 Number of Cells/Field | 1.8 ± 1.0 Number of Cells/Field | 7.8 ± 2.6 Number of Cells/Field | – | – | –
– | Pg 2ε: glycoform of human plasminogen type 2 purified from plasma; 5.34 mol sialic acid/mol Pg | 3.8 ± 0.83 | Yes | No | bind to 1-LN cells in a dose-dependent manner with high affinity | 9.4 ± 0.8 | 46.6 ± 5.4 Number of Cells/Field | bind to this DPP IV in a dose-dependent and saturable manner | 3.1 ± 1.6 Number of Cells/Field | 1.5 ± 1.0 Number of Cells/Field | 2.1 ± 1.3 Number of Cells/Field | 6-7 fold | – | –
– | Pg 2α: glycoform of human plasminogen type 2 purified from plasma; 1.3 mol sialic acid/mol Pg | 24.3 ± 1.33 | No | Yes | bind to 1-LN cells in a dose-dependent manner with high affinity | 13.0 ± 4.6 | 13.5 ± 3.4 Number of Cells/Field | No specific binding | – | – | – | – | – | –
progressively inhibited | OC[C@@H]1O[C@H](O[C@@H]2[C@@H](O)[C@H](O)C(O)O[C@H]2CO)[C@@H](O)[C@H](O)[C@@H]1O (stereo partly drawn) [L-lactose, reference compound] | – | – | – | – | – | – | – | – | – | – | – | inhibited binding of Pgs 2γ, 2δ, and 2ε | –
– | Pg 2φ: glycoform of human plasminogen type 2 purified from plasma; 13.65 mol sialic acid/mol Pg | – | – | – | does not bind; also recorded: No binding | – | 6.8 ± 1.3 Number of Cells/Field | No specific binding | – | – | – | – | – | No Binding

— patent US20030138429A1, “Compositions and methods for inhibiting metastasis” (priority 2001, published 2003)
